In PubChem BioAssay AID1996:
In brackets after ≈: the same amount, converted by molar mass.

Details: buffer; pH 7.4; 200.0 µM

Question: With O=C(NCCc1nc2ccccc2[nH]1)c1ccc([N+](=O)[O-])cc1 as the compound, how does the solubility kinetic read?
Answer: 8.7 µg/mL (≈ 28 µM)

Question: For O=C(COc1ccccc1Cl)N1CCc2ccccc21, which solubility kinetic is on record?
Answer: 1.1 µg/mL (≈ 3.82 µM)

Question: With O=C1C2C3C=CC(CC3)C2C(=O)N1/N=C/c1ccco1 (stereo unspecified) as the compound, how does the solubility kinetic read?
Answer: > 40.5 µg/mL

Question: Which solubility kinetic does the source give for COc1cc(F)ccc1S(=O)(=O)n1c(C)nc2ccccc21 here?
Answer: > 48.1 µg/mL

Question: Which solubility kinetic does the source give for Cc1ccc(C(=O)NCCCNC(=O)c2ccco2)cn1 here?
Answer: 34.3 µg/mL (≈ 119 µM)

Question: With Cc1ccc(NC(=O)C(C)SCc2nc3sc4c(c3c(=O)[nH]2)CCCC4)nc1 (stereo unspecified) as the compound, how does the solubility kinetic read?
Answer: 29.4 µg/mL (≈ 70.9 µM)

Question: With Cn1cnc(S(=O)(=O)Nc2ccc3c(c2)OCCO3)c1 as the compound, how does the solubility kinetic read?
Answer: 30.2 µg/mL (≈ 102 µM)

Question: With O=c1oc(/C=C/c2ccc([N+](=O)[O-])s2)nc2ccccc12 as the compound, how does the solubility kinetic read?
Answer: 0.5 µg/mL (≈ 1.67 µM)

Question: For COc1ccccc1Oc1ccc2c(c1)C(=O)N(CC(=O)O)C2=O, which solubility kinetic is on record?
Answer: > 49.1 µg/mL

Question: For N#Cc1ccc(C(=O)OCC(=O)N2CCCC2)cc1, which solubility kinetic is on record?
Answer: > 38.7 µg/mL

Question: Which solubility kinetic does the source give for COC(=O)c1sccc1NC(=O)c1c(Cl)cccc1Cl here?
Answer: 0.7 µg/mL (≈ 2.12 µM)

Question: Which solubility kinetic does the source give for Cc1ccc(S(=O)(=O)N2CCC(C(=O)Nc3cccnc3)CC2)cc1 here?
Answer: > 53.9 µg/mL

Question: For O=[N+]([O-])c1ccc(N2CCN(c3ccccc3)CC2)nc1, which solubility kinetic is on record?
Answer: 0.6 µg/mL (≈ 2.11 µM)

Question: For CCC1CN(C(=O)NCc2cccc(OC)c2)c2ccccc2O1 (stereo unspecified), which solubility kinetic is on record?
Answer: 43.3 µg/mL (≈ 133 µM)

Question: With O=C(CN1CCN(C(=O)c2ccccc2)CC1)NC(=O)NCCC1=CCCCC1 as the compound, how does the solubility kinetic read?
Answer: > 59.8 µg/mL

Question: With NC(CSCc1cccc(Br)c1)C(=O)O (stereo unspecified) as the compound, how does the solubility kinetic read?
Answer: > 43.5 µg/mL

Question: Which solubility kinetic does the source give for C=CCSc1nc(C)c(CCC(C)C)c(=O)[nH]1 here?
Answer: 9.2 µg/mL (≈ 36.5 µM)

Question: For C[N+](C)(C)CCOC(=O)CBr.[Br-], which solubility kinetic is on record?
Answer: > 45.8 µg/mL

Question: For Cc1ccc(C)c(N2CCN(C3CCCC(C)C3)CC2)c1 (stereo unspecified), which solubility kinetic is on record?
Answer: 23.3 µg/mL (≈ 81.3 µM)

Question: With COc1cc(C(=O)NC(c2ccccc2)c2ccccc2)cc(OC)c1OC as the compound, how does the solubility kinetic read?
Answer: < 0.8 µg/mL

Question: Which solubility kinetic does the source give for Cc1[nH]c2ccc(C(=O)N3CCCC3)cc2c1C here?
Answer: > 36.3 µg/mL

Question: With O=C(Nc1ccccc1Br)C1CCN(S(=O)(=O)c2cccs2)CC1 as the compound, how does the solubility kinetic read?
Answer: 7.8 µg/mL (≈ 18.2 µM)

Question: Which solubility kinetic does the source give for O=c1ccc2cc(S(=O)(=O)NCCCc3ccccc3)ccc2[nH]1 here?
Answer: 1 µg/mL (≈ 2.92 µM)

Question: Which solubility kinetic does the source give for Cc1ccc(OCC(=O)Nc2ccccc2F)cc1 here?
Answer: 4.6 µg/mL (≈ 17.7 µM)

Question: With CCc1ccccc1N1C(=O)C(Cl)=C(N2CCOCC2)C1=O as the compound, how does the solubility kinetic read?
Answer: 45.8 µg/mL (≈ 143 µM)

Question: For CCOC(=O)c1csc(NC(=O)CN2CCN(C)CC2)n1, which solubility kinetic is on record?
Answer: > 46.9 µg/mL

Question: For COc1ccc([N+](=O)[O-])cc1NCC(=O)c1ccc(C)cc1, which solubility kinetic is on record?
Answer: 14.2 µg/mL (≈ 47.3 µM)

Question: With CC(=O)c1cc(C#N)c(SCc2ccccn2)nc1C as the compound, how does the solubility kinetic read?
Answer: 10.2 µg/mL (≈ 36 µM)

Question: Which solubility kinetic does the source give for CC1CCCCN1CC(O)COCc1ccccc1.Cl (stereo unspecified) here?
Answer: > 45 µg/mL

Question: For CCN(CC(=O)Nc1ccc2c(c1)OCCO2)C(=O)c1ccccc1Br, which solubility kinetic is on record?
Answer: > 62.9 µg/mL

Question: For Cc1ccc(OCC(=O)NCCc2c[nH]c3ccccc23)cc1, which solubility kinetic is on record?
Answer: 4.9 µg/mL (≈ 15.9 µM)

Question: Which solubility kinetic does the source give for O=c1[nH]cnc2ccc([N+](=O)[O-])cc12 here?
Answer: > 28.7 µg/mL

Question: With O=C(NC(=S)Nc1ccccc1O)c1cccnc1 as the compound, how does the solubility kinetic read?
Answer: > 41 µg/mL

Question: With O=C(COc1ccc2c(c1)CCC2)Nc1ccccn1 as the compound, how does the solubility kinetic read?
Answer: 14.2 µg/mL (≈ 52.9 µM)

Question: For CCN(CC)S(=O)(=O)c1ccc(NC(=S)NC(=O)C2CCC2)cc1, which solubility kinetic is on record?
Answer: 18.7 µg/mL (≈ 50.6 µM)

Question: With CC(=O)c1c(C)[nH]c(C(=O)N2CC(C)CC(C)C2)c1C (stereo unspecified) as the compound, how does the solubility kinetic read?
Answer: > 41.5 µg/mL

Question: With CCc1ccccc1NC(=O)CSc1nc(C)c(C)o1 as the compound, how does the solubility kinetic read?
Answer: > 43.6 µg/mL

Question: For CN1C(=O)c2ccc(C(=O)NCc3ccco3)cc2C1=O, which solubility kinetic is on record?
Answer: > 42.6 µg/mL

Question: For O=S(=O)(c1ccc(Cl)cc1)N1CCN2CCCC2C1 (stereo unspecified), which solubility kinetic is on record?
Answer: > 45.1 µg/mL

Question: Which solubility kinetic does the source give for Cc1cc2nc3c(=O)n(C4CCCCC4)c(=O)[nH]c3nc2cc1N here?
Answer: 2.8 µg/mL (≈ 8.61 µM)

Question: Which solubility kinetic does the source give for OCc1nc2ccccc2n1CCc1ccccc1 here?
Answer: 36.1 µg/mL (≈ 143 µM)

Question: For CCCCC(=O)OCc1nc2ccccc2s1, which solubility kinetic is on record?
Answer: 11.2 µg/mL (≈ 44.9 µM)

Question: For O=C(CSc1ncnc2ccccc12)c1ccco1, which solubility kinetic is on record?
Answer: > 40.5 µg/mL

Question: For CCOc1ccccc1NS(=O)(=O)c1ccc2oc(=O)ccc2c1, which solubility kinetic is on record?
Answer: 43.6 µg/mL (≈ 126 µM)

Question: For CC(=O)NCCc1nc2ccccc2n1Cc1cccc(C)c1, which solubility kinetic is on record?
Answer: > 46.1 µg/mL

Question: With C[C@H]1O[C@@H](n2cc(F)c(=O)[nH]c2=O)[C@H](O)[C@@H]1O as the compound, how does the solubility kinetic read?
Answer: > 36.9 µg/mL

Question: For CC(NC(=O)Nc1ccc(F)cc1F)c1ccc2c(c1)OCO2 (stereo unspecified), which solubility kinetic is on record?
Answer: 2.4 µg/mL (≈ 7.49 µM)

Question: Which solubility kinetic does the source give for O=c1oc2ccccc2c(N2CCOCC2)c1[N+](=O)[O-] here?
Answer: > 41.4 µg/mL

Question: With Cc1ccc(O)c(N/C=C/C(=O)c2ccc(F)cc2)c1 as the compound, how does the solubility kinetic read?
Answer: 1.1 µg/mL (≈ 4.05 µM)

Question: Which solubility kinetic does the source give for S=C(Nc1ccccc1)Nc1ccccc1Br here?
Answer: 16.4 µg/mL (≈ 53.4 µM)

Question: Which solubility kinetic does the source give for N#Cc1c(-c2ccco2)ccn(Cc2cccc(F)c2)c1=O here?
Answer: 3.2 µg/mL (≈ 10.9 µM)

Question: For CN1CCN(Cc2c(F)cccc2Cl)CC1, which solubility kinetic is on record?
Answer: 24.2 µg/mL (≈ 99.7 µM)

Question: For CN1CCN(c2ccc([N+](=O)[O-])cc2NC(=O)c2ccco2)CC1, which solubility kinetic is on record?
Answer: 20.8 µg/mL (≈ 63 µM)

Question: Which solubility kinetic does the source give for CN(c1ccc(C(=O)Nc2ccc(CC#N)cc2)cc1)S(C)(=O)=O here?
Answer: 4.2 µg/mL (≈ 12.2 µM)

Question: For COc1cc(CC(=O)OCC(=O)N(C)C2CCCCC2)cc(OC)c1OC, which solubility kinetic is on record?
Answer: 52.4 µg/mL (≈ 138 µM)

Question: Which solubility kinetic does the source give for CCC(C)C(=O)Nc1nc2ccc(OC)cc2s1 (stereo unspecified) here?
Answer: > 39.7 µg/mL

Question: With CCNC(=O)CSc1nc(-c2ccc(F)cc2)cs1 as the compound, how does the solubility kinetic read?
Answer: 42.8 µg/mL (≈ 144 µM)

Question: For Cc1ccsc1-c1cc(C(=O)O)c2c(ccc3ccccc32)n1, which solubility kinetic is on record?
Answer: > 47.9 µg/mL

Question: With CCn1ccnc1CNC(=O)c1cc(COc2ccc(F)cc2F)on1 as the compound, how does the solubility kinetic read?
Answer: 49.3 µg/mL (≈ 136 µM)

Question: With Cc1cc(C)cc(NC(=O)c2cccnc2)c1 as the compound, how does the solubility kinetic read?
Answer: > 33.9 µg/mL

Question: For CCOC(=O)C1CCN(C(=O)COC(=O)c2c(C)c(CC)nc3ccccc23)CC1, which solubility kinetic is on record?
Answer: 20.3 µg/mL (≈ 49.2 µM)
